Data reported in the kinase profiling compilation of Christmann-Franck et al. (2016).

Key:
Test in all cases: KINOMEscan competition binding
Conditions in all cases: compound 10.0 µM
[1] = molecular target: ALK (human) (UniProt Q9UM73)
[2] = molecular target: MAPK11 (human) (UniProt Q15759)
[3] = molecular target: NUAK1 (human) (UniProt O60285)
[4] = molecular target: AAK1 (human) (UniProt Q2M2I8)
[5] = molecular target: NEK11 (human) (UniProt Q8NG66)
[6] = molecular target: RPS6KB1 (human) (UniProt P23443)
[7] = molecular target: STK32B (human) (UniProt Q9NY57)
Sequence of STK32B (human) (Q9NY57 whole entry, looked up): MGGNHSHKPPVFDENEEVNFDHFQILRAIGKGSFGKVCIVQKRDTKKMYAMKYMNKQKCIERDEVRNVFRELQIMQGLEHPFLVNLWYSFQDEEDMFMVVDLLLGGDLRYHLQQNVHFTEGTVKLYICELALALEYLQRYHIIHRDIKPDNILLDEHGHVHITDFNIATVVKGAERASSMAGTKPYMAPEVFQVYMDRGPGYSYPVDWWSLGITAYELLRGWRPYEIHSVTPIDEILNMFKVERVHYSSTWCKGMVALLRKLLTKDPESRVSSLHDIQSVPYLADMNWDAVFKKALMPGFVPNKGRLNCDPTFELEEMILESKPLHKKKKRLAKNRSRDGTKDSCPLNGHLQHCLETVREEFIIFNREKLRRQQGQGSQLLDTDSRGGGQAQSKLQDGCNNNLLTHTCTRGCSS

[8] = molecular target: CDK2 (human) (UniProt P24941)
[9] = molecular target: MERTK (human) (UniProt Q12866)
[10] = molecular target: EGFR (human) (UniProt P00533)
[11] = molecular target: TGFBR2 (human) (UniProt P37173)
Sequence of TGFBR2 (human) (P37173 whole entry, looked up): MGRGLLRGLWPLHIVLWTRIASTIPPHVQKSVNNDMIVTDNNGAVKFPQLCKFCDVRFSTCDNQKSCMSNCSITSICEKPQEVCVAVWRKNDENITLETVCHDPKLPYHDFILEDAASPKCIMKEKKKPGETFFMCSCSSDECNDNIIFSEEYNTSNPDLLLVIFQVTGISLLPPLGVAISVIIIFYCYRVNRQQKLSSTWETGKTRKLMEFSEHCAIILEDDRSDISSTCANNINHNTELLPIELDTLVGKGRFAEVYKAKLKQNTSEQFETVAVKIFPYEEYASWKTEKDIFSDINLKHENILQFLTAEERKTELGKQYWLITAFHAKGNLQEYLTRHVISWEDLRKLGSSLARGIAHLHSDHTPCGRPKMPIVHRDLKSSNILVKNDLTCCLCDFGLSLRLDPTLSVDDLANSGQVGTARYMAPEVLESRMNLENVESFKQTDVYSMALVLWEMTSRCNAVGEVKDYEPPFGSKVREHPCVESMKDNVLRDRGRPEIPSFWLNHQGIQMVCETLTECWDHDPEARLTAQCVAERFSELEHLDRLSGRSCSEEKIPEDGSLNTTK

[12] = molecular target: STK33 (human) (UniProt Q9BYT3)
[13] = molecular target: BLK (human) (UniProt P51451)
[14] = molecular target: EPHA2 (human) (UniProt P29317)
Sequence of EPHA2 (human) (P29317 whole entry, looked up): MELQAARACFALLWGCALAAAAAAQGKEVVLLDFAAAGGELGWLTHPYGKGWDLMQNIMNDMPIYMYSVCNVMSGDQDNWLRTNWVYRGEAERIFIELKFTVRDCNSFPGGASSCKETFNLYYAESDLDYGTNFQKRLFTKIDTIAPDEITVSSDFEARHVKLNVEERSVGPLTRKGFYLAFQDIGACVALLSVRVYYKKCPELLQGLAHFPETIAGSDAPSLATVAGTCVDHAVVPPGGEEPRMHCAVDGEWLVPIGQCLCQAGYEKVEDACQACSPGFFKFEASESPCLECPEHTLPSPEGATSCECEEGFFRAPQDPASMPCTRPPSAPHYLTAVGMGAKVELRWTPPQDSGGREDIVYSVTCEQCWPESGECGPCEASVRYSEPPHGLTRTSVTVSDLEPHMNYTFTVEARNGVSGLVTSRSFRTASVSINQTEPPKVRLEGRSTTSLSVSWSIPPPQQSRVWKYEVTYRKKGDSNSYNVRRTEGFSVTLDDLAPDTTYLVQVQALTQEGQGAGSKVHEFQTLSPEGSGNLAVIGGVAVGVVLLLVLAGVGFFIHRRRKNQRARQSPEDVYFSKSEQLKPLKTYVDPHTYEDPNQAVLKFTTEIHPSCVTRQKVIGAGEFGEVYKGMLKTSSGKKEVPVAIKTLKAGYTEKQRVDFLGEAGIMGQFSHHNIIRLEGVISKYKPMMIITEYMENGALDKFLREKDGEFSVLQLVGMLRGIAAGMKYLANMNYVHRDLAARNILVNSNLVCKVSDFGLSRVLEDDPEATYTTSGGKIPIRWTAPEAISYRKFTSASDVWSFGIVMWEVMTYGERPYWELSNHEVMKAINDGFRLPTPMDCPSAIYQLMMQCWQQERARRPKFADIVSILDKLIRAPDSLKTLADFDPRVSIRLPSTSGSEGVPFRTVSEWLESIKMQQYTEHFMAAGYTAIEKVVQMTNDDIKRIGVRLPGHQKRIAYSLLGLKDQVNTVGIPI

[15] = molecular target: MYLK3 (human) (UniProt Q32MK0)
Sequence of MYLK3 (human) (Q32MK0 whole entry, looked up): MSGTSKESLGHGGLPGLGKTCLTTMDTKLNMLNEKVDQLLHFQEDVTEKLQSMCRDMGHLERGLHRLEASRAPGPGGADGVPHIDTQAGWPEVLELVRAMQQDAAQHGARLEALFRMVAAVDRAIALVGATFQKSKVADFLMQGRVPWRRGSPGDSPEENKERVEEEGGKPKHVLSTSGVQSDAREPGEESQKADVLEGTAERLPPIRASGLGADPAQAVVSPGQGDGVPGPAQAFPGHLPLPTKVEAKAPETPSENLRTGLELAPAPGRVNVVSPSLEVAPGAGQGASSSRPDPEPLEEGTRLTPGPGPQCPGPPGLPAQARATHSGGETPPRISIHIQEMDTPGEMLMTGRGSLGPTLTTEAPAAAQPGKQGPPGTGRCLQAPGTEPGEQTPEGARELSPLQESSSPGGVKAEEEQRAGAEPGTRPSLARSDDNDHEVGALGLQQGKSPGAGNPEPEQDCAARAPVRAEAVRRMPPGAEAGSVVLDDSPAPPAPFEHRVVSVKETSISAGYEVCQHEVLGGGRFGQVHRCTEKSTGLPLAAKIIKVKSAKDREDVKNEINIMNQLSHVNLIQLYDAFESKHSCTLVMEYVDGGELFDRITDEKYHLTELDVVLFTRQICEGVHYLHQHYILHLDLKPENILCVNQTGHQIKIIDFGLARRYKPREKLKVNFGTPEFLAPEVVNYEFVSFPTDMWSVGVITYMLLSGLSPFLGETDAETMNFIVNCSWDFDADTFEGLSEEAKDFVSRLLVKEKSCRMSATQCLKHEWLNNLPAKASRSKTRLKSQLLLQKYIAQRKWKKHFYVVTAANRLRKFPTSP

[16] = molecular target: TSSK1B (human) (UniProt Q9BXA7)
[17] = molecular target: STK38 (human) (UniProt Q15208)
[18] = molecular target: EPHB2 (human) (UniProt P29323)
[19] = molecular target: ROCK2 (human) (UniProt O75116)
[20] = molecular target: ACVR2B (human) (UniProt Q13705)
[21] = molecular target: BMPR2 (human) (UniProt Q13873)
[22] = molecular target: CDK4 CCND1 (human) (UniProt P11802+P24385)
[23] = molecular target: DDR1 (human) (UniProt Q08345)
[24] = molecular target: PAK6 (human) (UniProt Q9NQU5)
[25] = molecular target: NTRK3 (human) (UniProt Q16288)
[26] = molecular target: CDC2L2 (human) (UniProt Q9UQ88)
[27] = molecular target: DYRK1B (human) (UniProt Q9Y463)
[28] = molecular target: NIM1 (human) (UniProt Q8IY84)
[29] = molecular target: EPHB6 (human) (UniProt O15197)
[30] = molecular target: CHEK2 (human) (UniProt O96017)
[31] = molecular target: RPS6KA3 KD1 (human) (UniProt P51812)
[32] = molecular target: MAP2K2 (human) (UniProt P36507)
[33] = molecular target: TEC (human) (UniProt P42680)
Sequence of TEC (human) (P42680 whole entry, looked up): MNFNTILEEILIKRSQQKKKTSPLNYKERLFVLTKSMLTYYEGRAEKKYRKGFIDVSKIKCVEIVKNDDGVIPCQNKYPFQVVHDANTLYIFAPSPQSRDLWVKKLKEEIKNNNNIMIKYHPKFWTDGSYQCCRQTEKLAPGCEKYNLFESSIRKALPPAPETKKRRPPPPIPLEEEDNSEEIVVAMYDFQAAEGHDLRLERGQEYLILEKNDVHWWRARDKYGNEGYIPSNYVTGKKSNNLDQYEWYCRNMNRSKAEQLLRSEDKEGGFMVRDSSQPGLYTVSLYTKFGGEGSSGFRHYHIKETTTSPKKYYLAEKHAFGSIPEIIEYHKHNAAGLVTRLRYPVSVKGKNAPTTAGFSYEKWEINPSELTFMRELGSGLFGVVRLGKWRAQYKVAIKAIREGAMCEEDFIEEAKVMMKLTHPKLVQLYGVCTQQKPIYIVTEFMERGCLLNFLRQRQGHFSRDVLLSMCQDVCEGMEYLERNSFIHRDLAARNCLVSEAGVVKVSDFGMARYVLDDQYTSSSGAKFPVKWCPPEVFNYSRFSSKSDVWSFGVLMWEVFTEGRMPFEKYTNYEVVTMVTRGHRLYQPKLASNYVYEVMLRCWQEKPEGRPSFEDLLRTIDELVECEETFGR

[34] = molecular target: PRKD2 (human) (UniProt Q9BZL6)
[35] = molecular target: EPHA1 (human) (UniProt P21709)
[36] = molecular target: PIP4K2B (human) (UniProt P78356)
[37] = molecular target: CAMK2D (human) (UniProt Q13557)
[38] = molecular target: CSNK1G2 (human) (UniProt P78368)
[39] = molecular target: CAMK1D (human) (UniProt Q8IU85)
[40] = molecular target: SRPK3 (human) (UniProt Q9UPE1)

Sequence of ALK (human) (Q9UM73 whole entry, looked up): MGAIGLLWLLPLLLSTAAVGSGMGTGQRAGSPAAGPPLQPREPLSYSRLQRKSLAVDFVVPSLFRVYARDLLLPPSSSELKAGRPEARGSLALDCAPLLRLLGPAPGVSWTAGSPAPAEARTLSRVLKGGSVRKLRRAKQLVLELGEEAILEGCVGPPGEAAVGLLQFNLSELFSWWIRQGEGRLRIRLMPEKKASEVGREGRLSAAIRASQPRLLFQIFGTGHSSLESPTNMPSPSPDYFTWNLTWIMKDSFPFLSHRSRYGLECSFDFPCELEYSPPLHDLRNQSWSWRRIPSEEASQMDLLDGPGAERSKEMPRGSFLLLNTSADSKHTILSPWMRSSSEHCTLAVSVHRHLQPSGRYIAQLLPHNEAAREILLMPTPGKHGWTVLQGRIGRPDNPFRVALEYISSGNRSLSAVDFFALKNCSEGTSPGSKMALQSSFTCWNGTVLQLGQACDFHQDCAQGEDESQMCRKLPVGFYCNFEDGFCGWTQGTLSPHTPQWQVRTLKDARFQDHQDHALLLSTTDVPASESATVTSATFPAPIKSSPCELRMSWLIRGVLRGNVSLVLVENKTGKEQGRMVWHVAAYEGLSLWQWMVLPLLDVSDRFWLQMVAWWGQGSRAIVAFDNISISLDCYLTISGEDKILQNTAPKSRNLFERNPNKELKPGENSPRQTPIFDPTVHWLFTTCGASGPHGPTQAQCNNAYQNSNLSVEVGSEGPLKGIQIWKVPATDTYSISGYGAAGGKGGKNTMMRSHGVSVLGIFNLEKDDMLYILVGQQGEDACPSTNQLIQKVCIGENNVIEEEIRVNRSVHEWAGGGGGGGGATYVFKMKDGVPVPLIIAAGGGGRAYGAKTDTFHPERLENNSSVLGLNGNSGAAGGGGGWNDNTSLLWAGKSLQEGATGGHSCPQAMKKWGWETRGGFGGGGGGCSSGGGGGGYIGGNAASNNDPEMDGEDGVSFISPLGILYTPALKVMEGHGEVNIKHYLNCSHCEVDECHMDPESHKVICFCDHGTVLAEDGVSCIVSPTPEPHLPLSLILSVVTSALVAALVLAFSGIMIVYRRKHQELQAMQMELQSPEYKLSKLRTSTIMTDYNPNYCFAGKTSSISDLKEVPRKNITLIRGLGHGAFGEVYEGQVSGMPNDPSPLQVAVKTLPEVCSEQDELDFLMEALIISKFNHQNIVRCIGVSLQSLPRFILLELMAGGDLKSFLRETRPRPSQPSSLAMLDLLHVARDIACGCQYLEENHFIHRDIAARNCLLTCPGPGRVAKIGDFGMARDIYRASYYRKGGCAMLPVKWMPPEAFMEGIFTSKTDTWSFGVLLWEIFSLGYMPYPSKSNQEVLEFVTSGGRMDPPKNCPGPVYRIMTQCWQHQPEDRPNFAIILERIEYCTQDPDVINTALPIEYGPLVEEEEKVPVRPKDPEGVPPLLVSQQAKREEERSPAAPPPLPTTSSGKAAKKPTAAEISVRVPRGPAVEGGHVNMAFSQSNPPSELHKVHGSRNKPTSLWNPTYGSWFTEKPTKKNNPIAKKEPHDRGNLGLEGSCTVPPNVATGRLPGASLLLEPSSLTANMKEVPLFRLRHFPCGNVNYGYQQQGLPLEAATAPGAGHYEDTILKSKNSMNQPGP

Row | Structure (SMILES) | kinase still bound, per cent of control [1] | kinase still bound, per cent of control [2] | kinase still bound, per cent of control [3] | kinase still bound, per cent of control [4] | kinase still bound, per cent of control [5] | kinase still bound, per cent of control [6] | kinase still bound, per cent of control [7] | kinase still bound, per cent of control [8] | kinase still bound, per cent of control [9] | kinase still bound, per cent of control [11] | kinase still bound, per cent of control [13] | kinase still bound, per cent of control [14] | kinase still bound, per cent of control [15] | kinase still bound, per cent of control [16] | kinase still bound, per cent of control [17] | kinase still bound, per cent of control [18] | kinase still bound, per cent of control [19] | kinase still bound, per cent of control [20] | kinase still bound, per cent of control [21] | kinase still bound, per cent of control [22] | other results
1 | NC(=O)Nc1cc(-c2cccc(F)c2)sc1C(=O)N[C@@H]1CCCNC1 | 0.05% | 77% | 0% | 1.3% | 100% | 6.4% | 1% | 93% | 0.05% | 2.4% | 0% | 7.4% | 10% | 2.6% | 4% | 9.6% | 0.2% | 3.8% | 3.4% | 75% | kinase still bound, per cent of control [10]: 0.25%; kinase still bound, per cent of control [12]: 0%; kinase still bound, per cent of control [23]: 10%; kinase still bound, per cent of control [24]: 0.35%; kinase still bound, per cent of control [25]: 0.2%; kinase still bound, per cent of control [26]: 100%; kinase still bound, per cent of control [27]: 1.8%; kinase still bound, per cent of control [28]: 13%; kinase still bound, per cent of control [29]: 50%; kinase still bound, per cent of control [30]: 3.8%; kinase still bound, per cent of control [31]: 0.95%; kinase still bound, per cent of control [32]: 0%; kinase still bound, per cent of control [33]: 0.4%; kinase still bound, per cent of control [34]: 0.9%; kinase still bound, per cent of control [35]: 1.4%; kinase still bound, per cent of control [36]: 0.2%; kinase still bound, per cent of control [37]: 6.7%; kinase still bound, per cent of control [38]: 0.95%; kinase still bound, per cent of control [39]: 0.2%; kinase still bound, per cent of control [40]: 0.55%
2 | COCC(=O)NC/C=C/c1ccc2ncnc(Nc3ccc(Oc4ccc(C)nc4)c(C)c3)c2c1 | 100% | 100% | 100% | 100% | 100% | 65% | 92% | 92% | 97% | 94% | 62% | 100% | 100% | 100% | 73% | 100% | 100% | 100% | 73% | 100% | kinase still bound, per cent of control [23]: 52%; kinase still bound, per cent of control [24]: 89%; kinase still bound, per cent of control [25]: 93%; kinase still bound, per cent of control [26]: 100%; kinase still bound, per cent of control [27]: 92%; kinase still bound, per cent of control [28]: 87%; kinase still bound, per cent of control [29]: 74%; kinase still bound, per cent of control [30]: 55%; kinase still bound, per cent of control [31]: 92%; kinase still bound, per cent of control [32]: 11%; kinase still bound, per cent of control [33]: 73%; kinase still bound, per cent of control [34]: 97%; kinase still bound, per cent of control [35]: 88%; kinase still bound, per cent of control [36]: 100%; kinase still bound, per cent of control [37]: 100%; kinase still bound, per cent of control [38]: 100%; kinase still bound, per cent of control [39]: 87%; kinase still bound, per cent of control [40]: 100%
